Data taken from patent US20260207654A1, “HEPARAN SULFATE AND ITS MIMETICS AS CHEMOKINE INHIBITORS” (INDIAN INSTITUTE OF SCIENCE EDUCATION AND RESEARCH, priority 2021, published 2026).

Columns and labels:
Test in all cases: Chemokine glycan microarray binding assay
Details in all cases: maximum RFU set as 100% binding, average across 2 glycan concentrations and 3 chemokine dilutions (n=6)
[1] = molecular target: CCL13 (Homo sapiens, UniProt Q99616)
Procedure: (§1) Microarray Studies: The compounds of the present invention were covalently immobilized on epoxy group collated glass slides. Slides were rehydrated with dH2O and incubated for 30 min in a staining dish with 50° C. prewarmed ethanolamine (0.05 M) in Tris-HCl (0.1 M, pH 9.0) to block the remaining reactive epoxy groups on the slide surface, then washed with 50° C. prewarmed dH2O. Slides were centrifuged at 200 g for 3 min, then fitted with the ProPlate Multi-Array 16-well slide module (Grace Bio-lab P37001) to divide into the subarrays (blocks). Slides were washed with PBST (0.1% Tween 20), aspirated, and blocked with 200 μL/subarray of blocking buffer (PBS pH 7.3+1% w/v ovalbumin) for 1 h at RT with gentle shaking. Next, the blocking solution was aspirated and 100 μL/block of primary chemokines diluted in PBS pH 7.3+1% w/v ovalbumin were incubated with gentle shaking for 2 hours at RT. Slides were washed 4 times with PBST, then with PBS (without Tween-20) for 2 min. Bound antibodies were detected by incubating with biotinylated secondary detections (1 ng/μL) diluted in PBS, 200 μL/block at RT for 1 h. Slides were washed 4 times with PBST, then with PBS (without Tween-20) for 2 min and biotinylated antibodies were detected with Cy3-SA ([…]). Slides were washed 4 times with PBST, then with PBS for 10 min followed by removal from the ProPlate Multi-Array slide module and immediately dipping in a staining dish with dH2O for 10 min with shaking. The slides were then centrifuged at 200 g for 3 min, and the dry slides immediately scanned. Binding was tested at three serial dilutions, then detected with the relevant biotinylated secondary antibody (1 μg/mL) followed by Cy3-strepavidin (1.5 μg/mL). Arrays were scanned and RFUs were calculated of chemokines binding to 100 μM glycans printed at four replicates. Rank binding of chemokines (each at three dilutions) to glycans printed at four replicates each was calculated and summarized in Table 1. For each binding assay per printed block, the maximum RFU was determined and set as 100% binding. Then, binding to all other glycans in the same block was ranked in comparison to the maximal binding, and average rank binding (and SEM) for each glycan across the three examined concentrations of each chemokine was calculated. This analysis allowed to compare the glycan-binding profiles of the different chemokines and dissect their binding preferences.
(§2) Table 1. Chemokine glycan microarray binding assay. Binding was tested at 3 serial dilutions, then detected with the relevant biotinylated secondary antibody (1 μg/ml) followed by Cy3-Strepavidin (1.5 μg/ml) (Table SX). Arrays were scanned, relative fluorescent units (RFU) obtained, and maximum RFU determined and set as 100% binding. Then rank binding (per printed glycan per concentration, per each chemokine dilution, per printed block) was determined. Since each glycans was printed at 2 concentration, 100% binding was set separately for each concentration. Then, binding to all the other glycans at the same concentration was ranked in comparison to the maximal binding, and the average rank binding and SEM for each glycan across the two glycan concentrations and three examined dilutions of each chemokine was calculated (n=6, 2 glycan concentrations across 3 chemokine dilutions). This analysis allowed to compare the glycan binding profiles of the different chemokines and dissect their binding preferences. The mean rank is shown as a heatmap of all the examined binding assays together (red highest, blue lowest and white 50th percentile of ranking).

[2] = molecular target: CCL2 (Homo sapiens, UniProt P13500)
Procedure: as §1, §2

[3] = molecular target: T1, CCL21 (Homo sapiens, UniProt O00585)
T1 sequence (O00585 24-134): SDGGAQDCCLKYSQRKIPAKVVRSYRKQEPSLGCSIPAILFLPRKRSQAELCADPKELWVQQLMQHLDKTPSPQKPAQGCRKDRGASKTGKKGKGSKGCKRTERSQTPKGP
Procedure: as §1, §2

[4] = molecular target: T2, CCL28 (Homo sapiens, UniProt Q9NRJ3)
T2 sequence (Q9NRJ3 20-127): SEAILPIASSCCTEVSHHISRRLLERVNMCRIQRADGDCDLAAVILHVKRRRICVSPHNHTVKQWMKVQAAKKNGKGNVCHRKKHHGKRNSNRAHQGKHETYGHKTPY
Procedure: as §1, §2

[5] = molecular target: T3, CCL5 (Homo sapiens, UniProt P13501)
T3 sequence (P13501 24-91): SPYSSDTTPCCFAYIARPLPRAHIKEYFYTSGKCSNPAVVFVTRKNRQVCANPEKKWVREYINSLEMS
Procedure: as §1, §2

[6] = molecular target: CCL7 (Homo sapiens, UniProt P80098)
Procedure: as §1, §2

[7] = molecular target: T4, CXCL10 (Homo sapiens, UniProt P02778)
T4 sequence (P02778 22-98): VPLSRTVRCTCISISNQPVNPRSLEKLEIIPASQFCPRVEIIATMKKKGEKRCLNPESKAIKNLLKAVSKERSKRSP
Procedure: as §1, §2

[8] = molecular target: CXCL12 (Homo sapiens, UniProt P48061)
Procedure: as §1, §2

[9] = molecular target: T5, CXCL8 (Homo sapiens, UniProt P10145)
T5 sequence (P10145 21-99): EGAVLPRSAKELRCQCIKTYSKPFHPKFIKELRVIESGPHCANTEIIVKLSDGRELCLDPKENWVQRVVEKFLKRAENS
Procedure: as §1, §2

Sequence of CCL2 (P13500 24-99, species assumed): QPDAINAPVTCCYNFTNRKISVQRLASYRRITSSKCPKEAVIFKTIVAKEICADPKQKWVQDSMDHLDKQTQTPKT
Sequence of CXCL12 (P48061 22-93, species assumed): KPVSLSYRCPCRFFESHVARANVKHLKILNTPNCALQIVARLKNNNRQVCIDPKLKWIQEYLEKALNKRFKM
Sequence of CCL13 (Q99616 17-98, species assumed): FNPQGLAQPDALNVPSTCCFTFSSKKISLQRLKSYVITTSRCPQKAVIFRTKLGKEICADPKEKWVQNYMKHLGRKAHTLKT
Sequence of CCL7 (P80098 24-99, species assumed): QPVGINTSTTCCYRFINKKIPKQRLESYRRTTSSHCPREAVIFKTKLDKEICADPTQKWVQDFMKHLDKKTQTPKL

Compound	mean rank binding to CCL13 [1]	mean rank binding to CCL2 [2]	mean rank binding to CCL21 [3]	mean rank binding to CCL28 [4]	mean rank binding to CCL5 [5]	mean rank binding to CCL7 [6]	mean rank binding to CXCL10 [7]	mean rank binding to CXCL12 [8]	mean rank binding to CXCL8 [9]
CC(=O)N[C@H]1[C@@H](O[C@H]2[C@H](O)[C@@H](OP(=O)(O)O)[C@H](OCCCN)O[C@H]2C(=O)O)O[C@H](COP(=O)(O)O)[C@@H](O[C@@H]2O[C@@H](C(=O)O)[C@@H](O[C@H]3O[C@H](COP(=O)(O)O)[C@@H](O)[C@H](O)[C@H]3NC(C)=O)[C@H](O)[C@H]2OP(=O)(O)O)[C@@H]1O [Example 21, 3-Aminopropyl-O-[(2-acetamido-6-O-phosphonato-2-deoxy-α-D-glucopyranosyl)-(1→4)-O-(2-O-phosphonato-α-L-idopyranosyluronate)-(1→4)-O-(2-acetamido-6-O-phosphonato-2-deoxy-α-D-glucopyranosyl)]-(1→4)-O-2-O-phosphonato-α-L-idopyranosiduronate]	87%	2%	78%	78%	14%	56%	55%	59%	29%
NCCOCCO[C@@H]1O[C@@H](C(=O)O)[C@@H](OS(=O)(=O)O)[C@H](O)[C@H]1OS(=O)(=O)O [Example 3, Ethoxy-2-aminoethoxyl-O-(2,4-O-disulfonato)-α-L-idopyranoside Uronic Acid]	69%	0%	46%	72%	1%	17%	24%	38%	5%
CC(=O)NC1C(O)[C@H](O)C(CO)O[C@@H]1O[C@@H]1C(C(=O)O)O[C@@H](O[C@@H]2C(CO)O[C@H](O[C@@H]3C(C(=O)O)O[C@@H](OCCCN)C(O)C3O)C(NC(C)=O)C2O)C(O)C1O (stereo partly drawn) [Example 16, 3-Aminopropyl-O-[(2-acetamido-2-deoxy-α-D-glucopyranosyl)-(1→4)-O-(α-L-idopyranosyluronate)-(1→4)-O-(2-acetamido-2-deoxy-α-D-glucopyranosyl)]-(1→4)-O-α-L-idopyranosiduronate]	24%	0%	27%	22%	1%	2%	14%	16%	3%
CC(=O)NC1C(O)[C@H](O)C(COS(=O)(=O)O)O[C@@H]1O[C@@H]1C(C(=O)O)O[C@@H](O[C@@H]2C(COS(=O)(=O)O)O[C@H](O[C@@H]3C(C(=O)O)O[C@@H](OCCCN)C(O)C3O)C(NC(C)=O)C2O)C(O)C1O (stereo partly drawn) [Example 24, 3-Aminopropyl-O-[(2-acetamido-6-O-sulfonato-2-deoxy-α-D-glucopyranosyl)-(1→4)-O-(α-L-idopyranosyluronate)-(1→4)-O-(2-acetamido-6-O-sulfonato-2-deoxy-α-D-glucopyranosyl)]-(1→4)-O-α-L-idopyranosiduronate]	81%	13%	79%	79%	24%	73%	41%	66%	19%
3-Aminopropyl-O-[(2-amino-2-deoxy-α-D-glucopyranosyl)-(1→4)-O-(2-O-sulfonato-α-L-idopyranosyluronate)-(1→4)-O-(2-amino-2-deoxy-α-D-glucopyranosyl)]-(1→4)-O-2-O-sulfonato-α-L-idopyranosiduronate [Example 13]	70%	13%	69%	43%	31%	56%	52%	69%	37%
NCCOCCO[C@@H]1O[C@@H](C(=O)O)[C@@H](OS(=O)(=O)O)[C@H](O)[C@H]1O [Example 2, Ethoxy-2-aminoethoxyl-O-(4-O-sulfonato)-α-L-idopyranoside Uronic Acid]	82%	2%	63%	58%	2%	30%	45%	66%	12%
NCCOCCO[C@@H]1O[C@@H](C(=O)O)[C@@H](O[C@@H]2O[C@@H](C(=O)O)[C@@H](O[C@@H]3O[C@@H](C(=O)O)[C@@H](OS(=O)(=O)O)[C@H](O)[C@H]3O)[C@H](O)[C@H]2O)[C@H](O)[C@H]1O [Example 8, Ethoxy-2-aminoethoxyl-O-((4-O-sulfonato)-α-L-idopyranosyl Uronic Acid-α(1→4)-L-idopyranosyl Uronic Acid-α(1→4))-α-L-idopyranoside Uronic Acid]	72%	0%	60%	54%	10%	12%	23%	45%	13%
